# What was measured:
# U2OS cells = assay: Cellular oxygen consumption rate (uncoupled respiration), U2OS cells; format: cell-based, human; conditions: 50 μM, after oligomycin 1 μM
# Description: (§1) C2C12, U2O5, and 293A cells were cultured in DMEM with 10% FBS and pen/strep. Primary inguinal (iWAT) and brown (BAT) adipocytes were obtained as follows. The stromal-vascular fraction of inguinal (iWAT) pad from 4-12 week old male mice was dissected, minced, and digested for 45 min. at 37° C. in PBS containing 10 mM CaCl2, 2.4 U/ml dispase II (Roche), and 1.5 U/ml collagenase D (Roche). The stromal-vascular fraction of brown fat (BAT) pads from newborn (P1-P14) pups was dissected, minced, and digested for 45 min at 37° C. in PBS containing 1.3 mM CaCl2, 120 mM NaCl, 5 mM KCl, 5 mM glucose, 100 mM HEPES, 4% BSA, and 1.5 mg/ml collagenase B (Roche). Digested tissue was diluted with adipocyte culture media (DMEM/F-12, GlutaMAX™ supplement, Life Technologies, with 10% FBS and pen/strep) and centrifuged (600×g for 10 min.). The pellet was resuspended in 10 ml adipocyte culture media, strained through a 40 μm filter, and plated. Differentiation was induced by application of an adipogenic cocktail containing 5 μg/ml insulin (Sigma), 5 μM dexamethasone (Sigma), 250 μM isobutylmethylxanthine (Sigma), and 1 μM rosiglitazone (Cayman) for 2 days. Two days after induction, cells were maintained in adipocyte culture media containing 5 μg/ml insulin and 1 μM rosiglitazone.
# (§2) Cellular oxygen consumption rates were determined using an XF24 Extracellular Flux Analyzer (Seahorse Biosciences). Oligomycin was purchased from EMD Millipore, and FCCP and rotenone were purchased from Sigma. C2C12 or U2OS cells were seeded at 30,000 or 50,000 cells/well, respectively in an XF24 cell culture microplate (V7-PS, Seahorse Bioscience) and analyzed the following day. Primary iWAT or BAT adipocytes were seeded at 15,000 cells/well, differentiation was induced the following day as described, and the cells were analyzed on day 5. On the day of analysis, the cells were washed once with Seahorse respiration buffer (8.3 g/1 DMEM, 1.8 g/l NaCl, 1 mM pyruvate, 20 mM glucose, pen/strep), placed in 0.5 ml Seahorse respiration buffer, and incubated in a CO2-free incubator for 1 hr. Port injection solutions were prepared as follows (final concentrations in assay in parentheses): 10 μM oligomycin (1 μM final), […] amino acid (50 μM final), 2 μM FCCP (0.2 μM final), and 30 μM rotenone (3 μM final). The Seahorse program was run as follows: basal measurement, 3 cycles; inject port A (oligomycin), 3 cycles; inject port B (compounds), 8 cycles; inject port C (FCCP), 3 cycles; inject port D (rotenone), 3 cycles. Each cycle consisted of mix 4 min, wait 0 min, and measure 2 min. For data expressed as a percentage of oligomycin-treated basal, the respiration at cycle 6 was normalized to 100%, and the maximum respiration at any time point between cycles 7 and 15 inclusive was used.
# [1] = test system: primary inguinal fat cells, primary BAT cells, C2C12 cells, and U2OS cells; assay: Uncoupled respiration cellular assays (variety of cell types); format: cell-based; conditions: N-acyl amino acids at 10-100 uM
# Description: as §2
# [2] = test system: differentiated primary iWAT cells; assay: Cellular oxygen consumption rate (Seahorse XF24), differentiated primary iWAT adipocytes; format: cell-based, mouse; conditions: 50 μM, in presence of oligomycin; control fatty acid
# Description: as §1, §2
# mouse PM20D1 = target: T1, mouse PM20D1 (Mus musculus, UniProt Q8C165); assay: In vitro PM20D1-catalyzed synthesis of N-acyl amino acids; format: biochemical; conditions: head group 100 μM; oleate or arachidonate 1.5 mM, C18:1-CoA 0.7 mM
# T1 construct: Full-length mouse Pm20d1 cDNA (GE Dharmacon) was subcloned with an in-frame C-terminal 6× His and FLAG® tag; made in house; host or cells: 293A (HEK293A) cells stably infected with retrovirus
# T1 sequence (Q8C165 25-503): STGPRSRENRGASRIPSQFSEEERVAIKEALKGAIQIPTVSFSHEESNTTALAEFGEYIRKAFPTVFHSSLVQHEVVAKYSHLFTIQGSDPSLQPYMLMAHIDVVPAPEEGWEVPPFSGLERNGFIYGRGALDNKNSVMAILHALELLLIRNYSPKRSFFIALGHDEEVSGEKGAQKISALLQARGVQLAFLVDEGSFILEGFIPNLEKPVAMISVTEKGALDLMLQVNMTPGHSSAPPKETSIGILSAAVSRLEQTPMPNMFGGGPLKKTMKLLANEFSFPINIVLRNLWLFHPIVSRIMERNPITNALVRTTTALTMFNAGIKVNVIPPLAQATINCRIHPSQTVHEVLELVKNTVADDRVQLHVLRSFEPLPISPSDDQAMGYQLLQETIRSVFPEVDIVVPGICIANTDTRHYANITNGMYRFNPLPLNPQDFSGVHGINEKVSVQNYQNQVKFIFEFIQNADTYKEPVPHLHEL
# Description: The concentrated media was centrifuged to remove debris (600×g, 10 min, 4° C.) and the supernatant containing PM20D1-flag was decanted into a new tube. PM20D1-Flag was immunoaffinity purified overnight at 4° C. from the concentrated media using magnetic Flag-M2 beads (Sigma Aldrich). The beads were collected, washed three times in PBS, eluted with 3× Flag peptide ([…] in PBS, Sigma Aldrich), aliquoted, and stored at −80° C. For the purification of human PM20D1-flag, hPM20D1-flag plasmid (Origene) was transiently transfected into 293A cells. After two days, the media was changed, harvested 24 h later, concentrated, and purified exactly as described above.
# In vitro PM20D1-catalyzed synthesis of N-acyl amino acids was measured by incubating purified PM20D1 protein with oleate (1.5 mM) and phenylalanine (0.1 mM) in PBS (to 100 μl final volume) at 37° C. for 1.5 hrs. In vitro PM20D1-catalyzed N-acyl amino acid hydrolysis was measured by incubating purified PM20D1 protein with the indicated N-acyl amino acid (0.1 mM) in PBS (to 100 μl final volume) at 37° C. for 1.5 hrs. Reactions were terminated by placing the vials at −80° C. and the products generated in vitro were analyzed by mass spectroscopy (MS).
# Briefly, frozen serum (30 μl) for polar metabolomic analyses were extracted in 160 μl of 1:1 acetonitrile/methanol with inclusion of internal standard D3, ^15N-serine (1 nmol). Activity assays (100 μl) were extracted in 400 μl 1:1 acetonitrile/methanol. Following 30 s of thorough vortexing and 1 min of bath sonication, the polar metabolite fraction (supernatant) was isolated by centrifugation at 13,000×g for 10 min. Ten μl of this supernatant was analyzed by SRM-based targeted LC-MS/MS, or untargeted LC-MS.
# For separation of polar metabolites, normal-phase chromatography was performed with a […] column (50 mm×4.60 mm, Phenomenex). Mobile phases were as follows: Buffer A, acetonitrile; Buffer B, 95:5 water/acetonitrile with 0.1% formic acid or 0.2% ammonium hydroxide with 50 mM ammonium acetate for positive and negative ionization mode, respectively. The flow rate for each run started at 0.2 ml/min for 2 min, followed by a gradient starting at 0% B and increasing linearly to 100% B over the course of 15 min with a flow rate of 0.7 ml/min, followed by an isocratic gradient of 100% B for 10 min at 0.7 ml/min before equilibrating for 5 min at 0% B with a flow rate of 0.7 ml/min. MS analysis was performed with an electrospray ionization (ESI) source on an Agilent 6430 QQQ LC—MS/MS. The capillary voltage was set to 3.5 kV, and the fragmentor voltage was set to 100 V. The drying gas temperature was 325° C., the drying gas flow rate was 10 l/min, and the nebulizer pressure was 45 psi. For polar targeted and untargeted metabolomic analysis, representative metabolites were quantified by SRM of the transition from precursor to product ions (corresponding to amino acid fragment) at associated collision energies. Several representative fragmentation ions are as follows: C18:1-Ala, 352>88; C18:1-Gly, 338>74; C18:1-Phe, 428>164; C18:1-Leu/Ile, 394>130; C20:4-Phe, 450>164; C20:4-Leu/Ile, 416>130. Untargeted LC-MS was performed by scanning a mass range of m/z 50-1200, and data were exported as mzdata files and uploaded to XCMSOnline (xcmsserver.nutr.berkeley.edu) to identify metabolites that were differentially changed. For targeted metabolomics analysis, metabolites were quantified by integrating the area under the peak and were normalized to internal standard values corresponding to 1 nmol D3, ^15N-serine.
# [3] = test system: Diet induced obese (DIO) mice; assay: Chronic daily i.p. administration of N-acyl amino acids to DIO mice (body weight, food intake, body composition, GTT); format: in vivo, mouse; conditions: for body weight lost: after 8 days treatment, mean±SEM
# Description: (§3) Animal experiments were performed according to procedures approved by the Beth Israel Deaconess Medical Center IACUC. Mice were maintained in 12 h light-dark cycles at 22° C. and fed a standard irradiated rodent chow diet. All experiments on wild-type mice were performed with male C57BL/6 mice purchased from Jackson Laboratories, except for the AAV experiments, which were performed with male C57BL/6 mice from Charles River. UCP1-KO (stock #017476) and 16-20 week DIO mice (stock #380050) were obtained from Jackson Laboratories. For AAV injection experiments, mice were gently warmed using a 250 W clear infrared heat lamp, immobilized, and injected via tail vein with 10^10 virus/mouse (diluted in saline) in a total volume of 100 μl/mouse. Where indicated, mice were placed on high-fat diet (60% fat, Research Diets). For cold exposure experiments, mice were group housed and placed at 4° C. for the indicated times. For the preparation of C18:1-Phe for in vivo injections, compounds were dissolved in 18:1:1 v/v/v saline:Kolliphor® EL (Sigma Aldrich):DMSO and sonicated until homogeneous. Mice were administered compounds at 5 μl/g body weight at the indicated doses. For all injection experiments, mice were mock injected with saline daily for 3 days prior to the start of the experiments. For glucose tolerance tests (GTTs), mice received their final dose of compound the day prior to the assay and were then fasted overnight. Glucose was administered at 1.5 g/kg.
# (§4) Energy expenditure, O2 consumption, CO2 production, respiratory exchange ratio, total locomotor activity, and food intake measurements were made with a 16-cage Columbus Instruments Oxymax Comprehensive Lab Animal Monitoring System (CLAMS) at ambient room temperature (21-23° C.). Mice were acclimated for one day in metabolic cages prior to data collection. Whole-body composition was assessed with an EchoMRI™ 3-in-1 on conscious mice.
# C2C12 cells = assay: Cellular oxygen consumption rate (uncoupled respiration), C2C12 cells; format: cell-based, mouse; conditions: 50 μM, after oligomycin 1 μM
# Description: as §1, §2
# [4] = test system: Diet induced obese (DIO) mice; assay: Indirect calorimetry (CLAMS) of high fat diet/DIO mice treated with N-acyl amino acids; format: in vivo, mouse
# Description: as §3, §4
# [5] = daily i.p.: C18:1-Leu 25, C18:1-Phe 30, C20:4-Gly 15 mg/kg/day
compound,measurement,setting,value
"CCCCCCCCCCCCCCCC(=O)N[C@@H](Cc1ccccc1)C(=O)O [N-palmitoyl phenylalanine, Palmitoyl-L-phenylalanine]",uncoupling activity (uncoupled respiration),U2OS cells,possessed uncoupling activity
same,uncoupled respiration in cells,[1],increased uncoupled respiration
"CCCCC/C=C\C/C=C\C/C=C\C/C=C\CCCC(=O)O [arachidonate, arachidonic acid, reference compound]",oxygen consumption rate,[2],increased the oxygen consumption rate very modestly
same,substrate of the PM20D1 synthase reaction,mouse PM20D1,capable of using arachidonate as a fatty acid donor
"CCCCCCCC/C=C\CCCCCCCC(=O)[O-].[Na+] [oleate, sodium oleate, reference compound]",uncoupled respiration in cells,[1],inactive
same,substrate of the PM20D1 synthase reaction,mouse PM20D1,strong preference for free oleate over oleoyl-coenzyme A
same,body weight lost,"[3]; 25 mg/kg, i.p., daily",0.3 ± 0.2 g
"CCCCCCCCCCCCCCCCCC(=O)N[C@@H](Cc1ccccc1)C(=O)O [N-stearoyl phenylalanine, Stearoyl-L-phenylalanine]",uncoupling activity (uncoupled respiration),U2OS cells,possessed uncoupling activity
same,uncoupled respiration in cells,[1],increased uncoupled respiration
"CCCCCCCCCCCCCCCCCCCC(=O)N[C@@H](Cc1ccccc1)C(=O)O [N-arachidoyl phenylalanine, Icosanoyl-L-phenylalanine]",uncoupling activity (uncoupled respiration),U2OS cells,completely lacked uncoupling activity
same,uncoupled respiration in cells,[1],inactive
"CCCCCCCC/C=C\CCCCCCCC(=O)N[C@@H](CC(C)C)C(=O)O [C18:1-Leu, Oleoyl-L-leucine]",uncoupling activity (uncoupled respiration),C2C12 cells,significantly more potent than the free fatty acid alone
same,reduction of food intake versus vehicle-treated mice,"[3]; 25 mg/kg, i.p., daily",17%
same,body weight lost,"[3]; 25 mg/kg, i.p., daily",4.1 ± 0.3 g
same,body composition analysis (weight loss),"[3]; 25 mg/kg/day i.p., MRI",entirely accounted for by a difference in fat mass
same,GTT,"[3]; 25 mg/kg/day i.p., glucose 1.5 g/kg, versus vehicle- or oleate-treated mice",improvements
same,RER,[4]; C18:1-Leu 25 mg/kg/day i.p.,significantly lower
same,VCO2,[4]; C18:1-Leu 25 mg/kg/day i.p.,significantly augmented
same,food intake over the final two days of the experiment,"[4]; C18:1-Leu 25 mg/kg/day i.p., metabolic cages",reduced food intake
same,VO2,[4]; [5],significantly augmented
same,movement,[4]; [5],slightly reduced
"CCCCCCCCCCCC(=O)N[C@@H](Cc1ccccc1)C(=O)O [N-lauroyl phenylalanine, Dodecanoyl-L-phenylalanine]",uncoupling activity (uncoupled respiration),U2OS cells,completely lacked uncoupling activity
same,uncoupled respiration in cells,[1],inactive

# — patent US12194080B2, “Methods for identification, assessment, prevention, and treatment of metabolic disorders using PM20D1 and N-lipidated amino acids” (Dana-Farber Cancer Institute, Inc., priority 2015, dated 2025)
